From PubChem BioAssay (NCI)
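Compound exposure: 48 hours, 5 concentrations, 96-well plates. GI50 = concentration required for 50% inhibition of growth. Definition used: TGI = concentration required for complete inhibition of growth.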

Key:
Test in all cases: NCI-60 cell line screen, 48 h
[1] = tested on: LOX IMVI melanoma
[2] = tested on: NCI-H522 lung
[3] = tested on: HCT-116 colon
[4] = tested on: OVCAR-4 ovarian
[5] = tested on: NCI-H460 lung
[6] = tested on: SK-OV-3 ovarian
[7] = tested on: 786-0 renal
[8] = tested on: MOLT-4 leukemia
[9] = tested on: UACC-257 melanoma
[10] = tested on: OVCAR-5 ovarian
[11] = tested on: A549 NSCLC
[12] = tested on: HS 578T breast
[13] = tested on: HL-60(TB) leukemia
[14] = tested on: MDA-MB-231 breast
[15] = tested on: TK-10 renal
[16] = tested on: RXF 393 renal
[17] = tested on: PC-3 prostate
[18] = tested on: KM12 colon
[19] = tested on: SK-MEL-2 melanoma
[20] = tested on: IGROV1 ovarian
[21] = tested on: UO-31 renal
[22] = tested on: NCI-H226 lung
[23] = tested on: SNB-19 CNS
[24] = tested on: DU-145 prostate
[25] = tested on: BT-549 breast
[26] = tested on: SF-295 CNS
[27] = tested on: EKVX NSCLC
[28] = tested on: HCC-2998 colon
[29] = tested on: SNB-75 CNS
[30] = tested on: M14 melanoma
[31] = tested on: RPMI-8226 leukemia
[32] = tested on: HOP-62 NSCLC
[33] = tested on: MDA-MB-435
[34] = tested on: NCI-H23 lung
[35] = tested on: OVCAR-8 ovarian
[36] = tested on: SW-620 colon
[37] = tested on: HOP-92 NSCLC
[38] = tested on: OVCAR-3 ovarian
[39] = tested on: SF-268 CNS
[40] = tested on: SF-539 CNS
[41] = tested on: K-562 leukemia
[42] = tested on: UACC-62 melanoma
[43] = tested on: SR leukemia
[44] = tested on: COLO 205 colon
[45] = tested on: NCI/ADR-RES ovarian
[46] = tested on: MCF7 breast
[47] = tested on: CCRF-CEM leukemia
[48] = tested on: A498 renal
[49] = tested on: ACHN renal
[50] = tested on: CAKI-1 renal
[51] = tested on: SK-MEL-5 melanoma
[52] = tested on: SN12C renal
[53] = tested on: MALME-3M melanoma
[54] = tested on: U251 CNS
[55] = tested on: SK-MEL-28 melanoma
[56] = tested on: HT29 colon
[57] = tested on: HCT-15 colon

In the case of Cn1cc(-c2nc(-c3c[nH]c4ccccc34)cs2)c2cccnc21, the GI50 [1] is reported as 628 nM, the TGI [1] is reported as over 100000 nM and the GI50 [2] is reported as 58.6 nM. For the same compound, the TGI [2] was 6670 nM, the GI50 [3] was 364 nM and the TGI [3] was over 47200 nM. It also gave a GI50 [4] of 756 nM, a TGI [4] of over 60400 nM and a GI50 [5] of 339 nM. For the same compound, the TGI [5] was over 100000 nM, the GI50 [6] was 523 nM and the TGI [6] was over 82400 nM. It also gave a GI50 [7] of 525 nM, a TGI [7] of 49400 nM and a GI50 [8] of 757 nM. For the same compound, the TGI [8] was over 60300 nM, the GI50 [9] was 14200 nM and the TGI [9] was over 100000 nM. It also gave a GI50 [10] of 2110 nM, a TGI [10] of over 100000 nM and a GI50 [11] of 608 nM. It also gave a TGI [11] of over 100000 nM, a GI50 [12] of 424 nM and a TGI [12] of over 85100 nM. For the same compound, the GI50 [13] was 317 nM, the TGI [13] was over 72400 nM and the GI50 [14] was 1290 nM. The TGI [14] was over 100000 nM, the GI50 [15] was 1460 nM and the TGI [15] was 65100 nM. It also gave a GI50 [16] of 368 nM, a TGI [16] of 15900 nM and a GI50 [17] of 410 nM. It also gave a TGI [17] of over 100000 nM, a GI50 [18] of 314 nM and a TGI [18] of 22800 nM. For the same compound, the GI50 [19] was 353 nM, the TGI [19] was 51800 nM and the GI50 [20] was 1130 nM. For the same compound, the TGI [20] was over 100000 nM, the GI50 [21] was 649 nM and the TGI [21] was over 100000 nM. For the same compound, the GI50 [22] was 578 nM, the TGI [22] was over 100000 nM and the GI50 [23] was 530 nM. It also gave a TGI [23] of over 100000 nM, a GI50 [24] of 564 nM and a TGI [24] of over 100000 nM. For the same compound, the GI50 [25] was 325 nM, the TGI [25] was 17800 nM and the GI50 [26] was 268 nM. For the same compound, the TGI [26] was 19800 nM, the GI50 [27] was 907 nM and the TGI [27] was over 100000 nM. The GI50 [28] was 844 nM, the TGI [28] was over 79700 nM and the GI50 [29] was 161 nM. For the same compound, the TGI [29] was 779 nM, the GI50 [30] was 234 nM and the TGI [30] was over 54200 nM. It also gave a GI50 [31] of 541 nM, a TGI [31] of 32300 nM and a GI50 [32] of 626 nM. It also gave a TGI [32] of 59900 nM, a GI50 [33] of 32.1 nM and a TGI [33] of 250 nM. It also gave a GI50 [34] of 1040 nM, a TGI [34] of over 100000 nM and a GI50 [35] of 689 nM. It also gave a TGI [35] of over 100000 nM, a GI50 [36] of 221 nM and a TGI [36] of over 100000 nM. It also gave a GI50 [37] of 295 nM, a TGI [37] of 17200 nM and a GI50 [38] of 200 nM. It also gave a TGI [38] of 5900 nM, a GI50 [39] of 689 nM and a TGI [39] of over 100000 nM. For the same compound, the GI50 [40] was 282 nM, the TGI [40] was 1440 nM and the GI50 [41] was 106 nM. It also gave a TGI [41] of over 100000 nM, a GI50 [42] of 388 nM and a TGI [42] of over 72900 nM. For the same compound, the GI50 [43] was 167 nM, the TGI [43] was over 79400 nM and the GI50 [44] was 188 nM. The TGI [44] was 1030 nM, the GI50 [45] was 110 nM and the TGI [45] was 3370 nM. The GI50 [46] was 325 nM, the TGI [46] was over 100000 nM and the GI50 [47] was 353 nM. The TGI [47] was over 100000 nM, the GI50 [48] was 315 nM and the TGI [48] was 6100 nM. It also gave a GI50 [49] of 527 nM, a TGI [49] of over 100000 nM and a GI50 [50] of 273 nM. The TGI [50] was over 100000 nM, the GI50 [51] was 255 nM and the TGI [51] was 16100 nM. The GI50 [52] was 2090 nM, the TGI [52] was over 100000 nM and the GI50 [53] was 745 nM. The TGI [53] was 86600 nM, the GI50 [54] was 432 nM and the TGI [54] was over 53900 nM. For the same compound, the GI50 [55] was 710 nM, the TGI [55] was over 100000 nM and the GI50 [56] was 166 nM. It also gave a TGI [56] of 18300 nM, a GI50 [57] of 221 nM and a TGI [57] of over 100000 nM.
